# Columns and labels:
# MCF7 [1] = assay: Growth inhibition of human MCF7 cells assessed as cell growth inhibition by SRB assay; format: functional
# HCT-116 [2] = assay: Anticancer activity against human HCT-116 cells assessed as cell growth inhibition measured after 48 hrs by MTT assay; format: functional, cell-based; conditions: HCT-116, 48 h
# HepG2 [3] = assay: Anticancer activity against human HepG2 cells assessed as cell growth inhibition measured after 48 hrs by MTT assay; format: functional, cell-based; conditions: HepG2, 48 h
# PC-3 [4] = assay: Anticancer activity against human PC-3 cells assessed as cell growth inhibition measured after 48 hrs by MTT assay; format: functional, cell-based; conditions: PC-3, 48 h
# HCT-116 [5] = assay: Potency index, ratio of cisplatin IC50 to test compound IC50 for anticancer activity against human HCT-116 cells; format: functional
# HepG2 [6] = assay: Potency index, ratio of cisplatin IC50 to test compound IC50 for anticancer activity against human HepG2 cells; format: functional
# PC-3 [7] = assay: Potency index, ratio of cisplatin IC50 to test compound IC50 for anticancer activity against human PC-3 cells; format: functional
# MCF7 [8] = assay: Anticancer activity against human MCF7 cells assessed as cell growth inhibition measured after 48 hrs by MTT assay; format: functional, cell-based; conditions: MCF7, 48 h
# HT-29 [9] = assay: Anticancer activity against human HT-29 cells assessed as cell growth inhibition measured after 48 hrs by MTT assay; format: functional, cell-based; conditions: HT-29, 48 h
# K562 [10] = assay: Anticancer activity against human K562 cells assessed as cell growth inhibition measured after 48 hrs by MTT assay; format: functional, cell-based; conditions: K562, 48 h
# A549 = assay: Anticancer activity against human A549 cells assessed as cell growth inhibition measured after 48 hrs by MTT assay; format: functional, cell-based; conditions: A549, 48 h
# MDA-MB-435 [11] = assay: Anticancer activity against human MDA-MB-435 cells assessed as cell growth inhibition by SRB assay; format: functional, cell-based
# MCF7 [12] = assay: Anticancer activity against human MCF7 cells assessed as cell growth inhibition by SRB assay; format: functional, cell-based
# HCT-116 [13] = assay: Anticancer activity against human HCT-116 cell assessed as cell growth inhibition; format: functional, cell-based
# HepG2 [14] = assay: Anticancer activity against human HepG2 cell assessed as cell growth inhibition; format: functional, cell-based
# PC-3 [15] = assay: Anticancer activity against human PC-3 cell assessed as cell growth inhibition; format: functional, cell-based
# PC-3 [16] = assay: Anticancer activity against human PC-3 cells assessed as cell death at 50 uM measured after 72 hrs by MTT assay relative to control; format: functional
# MDA-MB-435 [17] = assay: Growth inhibition of human MDA-MB-435 cells assessed as cell growth inhibition by SRB assay; format: functional
# MCF7 [18] = assay: Anticancer activity against human MCF7 cells assessed as cell growth inhibition measured after 24 hrs by SRB assay; format: functional, cell-based; conditions: MCF7, 24 h
# HCT-116 [19] = assay: Anticancer activity against human HCT-116 cells assessed as cell growth inhibition measured after 24 hrs by SRB assay; format: functional, cell-based; conditions: HCT-116, 24 h
# Mahlavu = assay: Anticancer activity against human Mahlavu cells assessed as cell growth inhibition measured after 24 hrs by SRB assay; format: functional, cell-based
# Huh-7 = assay: Anticancer activity against human Huh-7 cells assessed as cell growth inhibition measured after 24 hrs by SRB assay; format: functional, cell-based; conditions: Huh-7, 24 h
# COS-7 = assay: Anticancer activity against COS-7 cells assessed as cell growth inhibition at 50 uM measured after 48 hrs by MTT assay relative to control; format: functional; conditions: Chlorocebus aethiops
# MCF7 [20] = assay: Anticancer activity against human MCF7 cells assessed as cell growth inhibition measured after 48 hrs by WST-1 assay; format: functional, cell-based; conditions: MCF7, 48 h
# K562 [21] = assay: Anticancer activity against human K562 cells assessed as cell growth inhibition measured after 48 hrs by WST-1 assay; format: functional, cell-based; conditions: K562, 48 h
# HT-29 [22] = assay: Anticancer activity against human HT-29 cells assessed as cell growth inhibition measured after 24 hrs by MTT assay; format: functional, cell-based; conditions: HT-29, 24 h
# MCF7 [23] = assay: Anticancer activity against human MCF7 cells assessed as cell growth inhibition measured after 24 hrs by MTT assay; format: functional, cell-based; conditions: MCF7, 24 h
# [24] = Cytotoxicity against human Chang liver cells assessed as cell growth inhibition measured after 24 hrs by DAPI and propidium iodide staining based assay; format: toxicity
smiles,measurement,setting,value
O=C(/C=C/c1ccc(Cl)cc1Cl)c1ccc(OCCN2CCCC2)cc1,GI50,MCF7 [1],24.7 µg/mL
O=C(/C=C/c1ccc(Cl)cc1Cl)[C@H]1[C@H](c2ccc(Cl)cc2Cl)[C@H]2CSCN2[C@]12C(=O)Nc1ccccc12,IC50,HCT-116 [2],2 µM
same,IC50,HepG2 [3],1 µM
same,IC50,PC-3 [4],≥ 2.7 µM
same,Ratio IC50,HCT-116 [5],4
same,Ratio IC50,HepG2 [6],2
same,Ratio IC50,PC-3 [7],1.8
O=C1CCC(=O)N1CC(=O)N1N=C(c2ccccc2)CC1c1ccccc1 (configuration not stated),IC50,MCF7 [8],0.39 µM
same,IC50,HT-29 [9],0.39 µM
same,IC50,K562 [10],0.39 µM
CCOC(=O)[C@H]1CCCN1CC(=O)Nc1ccc2c(C)cc(=O)oc2c1,IC50,MCF7 [8],0.355 µM
same,IC50,A549,0.024 µM
N#CC1=C(N)OC2=C(c3ccccc3C2=O)C12C(=O)Nc1ccccc12 (configuration not stated),IC50,MDA-MB-435 [11],≥ 3.6 µM
same,IC50,MCF7 [12],≥ 53 µM
Cc1cc(=O)oc2cc(NC(=O)CN3CCC[C@@H]3C(N)=O)ccc12,IC50,MCF7 [8],0.355 µM
same,IC50,A549,0.024 µM
O=C(c1c[nH]c2ccccc12)[C@@H]1[C@@H](c2cccc(F)c2)[C@@H]2CSCN2[C@@]12C(=O)Nc1ccccc12,Ratio IC50,PC-3 [7],>2.9
same,IC50,HCT-116 [13],9 µM
same,IC50,HepG2 [14],5.5 µM
same,IC50,PC-3 [15],8 µM
COC(=O)[C@H]1C[C@@H](C(=O)OC)C(c2ccccc2)(c2ccccc2)N1C(=O)Cn1cc(C2CC2)nn1,Activity,PC-3 [16],25%
O=C(/C=C/c1c(Cl)cccc1Cl)c1ccc(OCCN2CCCC2)cc1,GI50,MCF7 [1],> 80 µg/mL
O=C(/C=C/c1cccc([N+](=O)[O-])c1)[C@H]1[C@H](c2cccc([N+](=O)[O-])c2)[C@H]2CSCN2C12C(=O)Nc1ccccc12 (some centres not stated),IC50,HCT-116 [2],2.5 µM
same,IC50,HepG2 [3],1 µM
same,IC50,PC-3 [4],≥ 2.7 µM
same,Ratio IC50,HCT-116 [5],4
same,Ratio IC50,HepG2 [6],2
same,Ratio IC50,PC-3 [7],1.8
N#CC1=C(N)OC2=C(C(=O)CO2)C12C(=O)Nc1ccc(I)cc12 (configuration not stated),GI50,MDA-MB-435 [17],27.3 µM
same,IC50,MDA-MB-435 [11],≥ 3.6 µM
same,IC50,MCF7 [12],≥ 53 µM
CC(C)C[C@@H]1N2[C@H](c3ccccc3)[C@H](c3ccccc3)OC(=O)[C@H]2[C@H](c2ccc([N+](=O)[O-])cc2)[C@@]12C(=O)Nc1ccccc12,IC50,MCF7 [18],4.8 µM
same,IC50,HCT-116 [19],3.9 µM
same,IC50,Mahlavu,14.9 µM
same,IC50,Huh-7,77.8 µM
COc1ccc(C2NCCC23C(=O)Nc2ccccc23)cc1OC (configuration not stated),inhibition at 50 µM,COS-7,0.51%
N#CC1=C(N)OC2=C(c3ccccc3C2=O)C12C(=O)Nc1ccc(Cl)cc12 (configuration not stated),IC50,MDA-MB-435 [11],≥ 3.6 µM
same,IC50,MCF7 [12],≥ 53 µM
O=C(c1c[nH]c2ccccc12)[C@@H]1[C@@H](c2ccc(Br)cc2)[C@@H]2CSCN2[C@@]12C(=O)Nc1ccccc12,Ratio IC50,PC-3 [7],>3
same,IC50,HepG2 [14],5.5 µM
same,IC50,PC-3 [15],7 µM
O=C(c1c[nH]c2ccccc12)[C@@H]1[C@@H](c2cccc(C(F)(F)F)c2)[C@@H]2CSCN2[C@@]12C(=O)Nc1ccccc12,IC50,HCT-116 [13],7 µM
same,IC50,HepG2 [14],5.5 µM
O=C(/C=C/c1ccc(Cl)cc1)[C@H]1[C@H](c2ccc(Cl)cc2)[C@H]2CSCN2[C@]12C(=O)Nc1ccccc12,IC50,HCT-116 [2],2.5 µM
same,IC50,HepG2 [3],1 µM
same,IC50,PC-3 [4],≥ 2.7 µM
same,Ratio IC50,HCT-116 [5],4
same,Ratio IC50,HepG2 [6],2
same,Ratio IC50,PC-3 [7],1.8
CC(C)C[C@@H]1N2[C@H](c3ccccc3)[C@H](c3ccccc3)OC(=O)[C@H]2[C@H](c2ccccc2Cl)[C@@]12C(=O)Nc1ccccc12,IC50,MCF7 [18],11.2 µM
same,IC50,HCT-116 [19],10.5 µM
same,IC50,Mahlavu,26.3 µM
same,IC50,Huh-7,36.6 µM
O=C1/C(=C/c2ccc(Br)cc2)CCC[C@]12[C@@H](c1ccc(Br)cc1)[C@@H]1CSCN1[C@]21C(=O)Nc2ccccc21,IC50,MCF7 [20],15.3 µM
same,IC50,K562 [21],14.7 µM
CC(C)(C)c1cc(/C=N/N2C(=O)c3ccccc3C2=O)c(O)c(C(C)(C)C)c1,IC50,HT-29 [22],667 µM
same,IC50,MCF7 [23],293 µM
CCCC(C)c1cn(CC(=O)N2[C@@H](C(=O)OC)C[C@@H](C(=O)OC)C2(c2ccccc2)c2ccccc2)nn1 (some centres not stated),Activity,PC-3 [16],25%
O=C(c1c[nH]c2ccccc12)[C@@H]1[C@@H](c2cccc(Br)c2)[C@@H]2CSCN2[C@@]12C(=O)Nc1ccccc12,Ratio IC50,PC-3 [7],>2.9
same,IC50,HCT-116 [13],9 µM
same,IC50,HepG2 [14],5.5 µM
same,IC50,PC-3 [15],8 µM
COc1cccc2c1C(=O)c1c(O)c3c(c(O)c1C2=O)C[C@@](O)(C(=O)CO)C[C@@H]3O[C@H]1C[C@H](N)[C@H](O)[C@H](C)O1.Cl [DOXORUBICIN HYDROCHLORIDE],GI50,MCF7 [1],< 10 µg/mL
CC(=O)O[C@H]1C(=O)[C@@]2(C)[C@H]([C@H](OC(=O)c3ccccc3)[C@]3(O)C[C@H](OC(=O)[C@H](O)[C@@H](NC(=O)c4ccccc4)c4ccccc4)C(C)=C1C3(C)C)[C@]1(OC(C)=O)CO[C@@H]1C[C@@H]2O [PACLITAXEL],IC50,MCF7 [8],47.2 µM
same,IC50,HT-29 [9],19.9 µM
same,IC50,K562 [10],0.35 µM
CCc1ccc(CCOc2ccc(CC3SC(=O)NC3=O)cc2)nc1 (configuration not stated) [PIOGLITAZONE],IC50,MCF7 [8],0.07 µM
same,IC50,HT-29 [9],40.3 µM
same,IC50,K562 [10],0.29 µM
CC/C(=C(\c1ccccc1)c1ccc(OCCN(C)C)cc1)c1ccccc1 [TAMOXIFEN],GI50,MCF7 [1],< 10 µg/mL
same,IC50,MCF7 [23],20.2 µM
same,IC50 at 24 h,[24],46.2 µM

# Reference: ChEMBL document CHEMBL5360530, “Structure activity relationship (SAR) and anticancer activity of pyrrolidine derivatives: Recent developments and future prospects (A review)” (Eur J Med Chem, 2023)
